Laboratory results reported in article PMC12062022, “Chromene flavanones from Dalea boliviana as xanthine oxidase inhibitors: in vitro biological evaluation and molecular docking studies” (Frontiers in Pharmacology, 2025).

Molecular target: T1, xanthine oxidase (Bos taurus, UniProt P80457)
T1 construct: gene XDH
Experiment: spectrophotometric assay of uric acid formation at […] nm, bovine milk enzyme
Type: biochemical
Settings: read-out: IC50 (nM) ± SEM

T1 sequence (P80457 2-1332): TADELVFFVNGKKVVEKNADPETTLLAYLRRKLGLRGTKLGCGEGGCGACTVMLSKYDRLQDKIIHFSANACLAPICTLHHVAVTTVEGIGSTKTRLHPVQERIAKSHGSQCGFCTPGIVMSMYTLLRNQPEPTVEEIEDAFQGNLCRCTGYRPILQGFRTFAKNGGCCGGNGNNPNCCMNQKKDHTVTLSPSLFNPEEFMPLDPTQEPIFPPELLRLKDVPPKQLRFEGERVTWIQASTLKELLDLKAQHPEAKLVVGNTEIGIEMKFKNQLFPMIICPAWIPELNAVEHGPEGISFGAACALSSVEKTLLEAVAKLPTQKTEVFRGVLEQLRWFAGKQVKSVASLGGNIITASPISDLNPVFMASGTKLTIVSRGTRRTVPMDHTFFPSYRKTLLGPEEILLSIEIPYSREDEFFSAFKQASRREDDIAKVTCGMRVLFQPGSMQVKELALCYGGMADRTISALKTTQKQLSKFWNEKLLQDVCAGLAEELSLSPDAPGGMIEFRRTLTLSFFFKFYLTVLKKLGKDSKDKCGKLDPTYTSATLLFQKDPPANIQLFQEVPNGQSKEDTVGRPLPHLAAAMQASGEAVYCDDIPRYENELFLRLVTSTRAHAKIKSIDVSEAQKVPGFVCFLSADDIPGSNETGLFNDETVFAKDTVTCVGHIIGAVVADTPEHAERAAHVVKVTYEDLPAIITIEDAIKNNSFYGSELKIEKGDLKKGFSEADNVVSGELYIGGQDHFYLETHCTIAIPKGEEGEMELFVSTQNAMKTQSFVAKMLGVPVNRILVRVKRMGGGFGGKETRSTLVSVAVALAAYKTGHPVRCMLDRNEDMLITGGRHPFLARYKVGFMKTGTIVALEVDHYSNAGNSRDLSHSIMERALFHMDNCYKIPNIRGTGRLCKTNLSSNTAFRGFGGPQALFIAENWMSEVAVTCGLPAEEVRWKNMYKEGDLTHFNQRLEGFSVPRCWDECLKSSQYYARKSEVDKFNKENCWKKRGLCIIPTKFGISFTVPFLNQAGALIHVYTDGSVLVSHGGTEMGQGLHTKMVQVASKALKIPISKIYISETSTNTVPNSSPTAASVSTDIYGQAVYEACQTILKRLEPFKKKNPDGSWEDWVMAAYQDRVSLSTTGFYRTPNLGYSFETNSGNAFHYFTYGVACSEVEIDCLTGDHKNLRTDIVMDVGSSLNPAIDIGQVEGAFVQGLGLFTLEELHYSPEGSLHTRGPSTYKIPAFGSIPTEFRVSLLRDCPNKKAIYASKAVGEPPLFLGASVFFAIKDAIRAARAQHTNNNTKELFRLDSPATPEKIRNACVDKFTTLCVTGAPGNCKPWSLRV

IC50 [nM] | SMILES
0.5 | CC1(C)C=Cc2c(cc(O)c3c2OC(c2ccccc2O)CC3=O)O1 (stereo in doubt) [compound 1, (2S) 5,2′-dihydroxy-6″,6″-dimethylchromeno-(7,8:2″,3″)-flavanone]
1.7 | CC(C)=CCc1cccc(C2CC(=O)c3c(O)cc4c(c3O2)C=CC(C)(C)O4)c1O (stereo in doubt) [compound 2, (2S) 5,2′-dihydroxy-6″,6″-dimethylchromeno-(7,8:2″,3″)-3′-prenylflavanone]
